A melting point compilation (Tetko et al.; mined from patent text by program, amines drawn as free bases though some values may be those of a salt)

melting point [°C]	Compound
104 to 105	COCC1CN(c2ccc(C3CCC(OC(=O)c4ccccc4)CC3)cc2)C(=O)O1 (racemic)
189 to 191	O=C(Nc1cccc2c1C(=O)c1c-2n[nH]c1-c1ccc(C(=O)NN2CCCCC2)s1)NN1CCOCC1
143 to 145	CS(=O)(=O)c1ccc(-c2ccc(C=C(Cl)Cl)s2)cc1
168	CCCCc1nc(Cl)c(C(=O)O)n1Cc1ccc(-c2ccccc2-c2c(O)c(=O)c2=O)cc1
131 to 134	O=C(c1ccc([N+](=O)[O-])cc1Cl)N1CCCCc2sccc21
201 to 202	COC(=O)c1cc2c([N+](=O)[O-])csc2nc1C1=NC(C)(C(C)C)C(=O)N1 (configuration not stated)
226 to 228	Cc1ccc(N2N=CC(=NNc3cccc(-c4cccc(C(=O)O)c4)c3O)C2=O)cc1C
209 to 210	CON=C(C(=O)O)c1csc(=N)n1O
167 to 169	CC(C)(C)c1cc(Br)c(O)c(C=NO)c1
130 to 132	CCCCc1ccc(NCC)c(C(=O)C(=O)OC(=O)C(=O)c2cc(CCCC)ccc2NCC)c1
170	COC1=C(OC)C(=O)C(CCC(=O)N[C@@H](Cc2ccc(O)cc2)C(=O)O)=C(C)C1=O
131 to 133	CCN(CC)CCN(C)CCC1CCCCN1C(=O)N1c2ccccc2NC(=O)c2csc(C)c21 (configuration not stated)
200 to 201	CN(CCNc1ccc2nc(NC(=O)c3ccc(C(C)(C)C)cc3)cn2n1)C(=O)OC(C)(C)C
200 to 205	O=C(O)Cc1c(C(=O)c2cc(C(=O)O)no2)[nH]c2ccc(Cl)cc12
160 to 161	COC(=O)C(C)(C)NS(=O)(=O)c1ccc2c(Cl)cnc(Cl)c2c1
207	Cc1cccc(NC(=O)CN2C(=O)c3ccccc3C2=O)c1
94 to 95	c1csc(-c2noc(COc3ccc(CCCCn4ccnc4)cc3)n2)c1
216 to 219	CCOC(=O)c1cn(C2CC2)c2cc(-n3cccc3)c(F)cc2c1=O
109 to 111	O=C(N[C@@H](Cc1ccc2ccccc2c1)C(=O)O)OCc1ccccc1
190 to 192	CCOC(=O)c1cn(-c2ccccc2)c2c(F)c(F)c(F)cc2c1=O
211 to 215	CCCOc1ccc(S(C)(=O)=O)cc1-c1nc2c(CC)nn(C[C@@H]3CCCN3C)c2c(=O)[nH]1
160 to 161	COc1cc(CCCS2(OCC(=O)O)C=CN=C2)cc(OCc2ccc3ccccc3c2)c1 (configuration not stated)
238 to 239	COC1CN(C(=O)c2cc(-c3ccccc3)c(=O)n3c2-c2cc(Cl)ccc2CN3)C1
72 to 73	CCOC(=O)CCCc1oc(-n2ccnc2C)nc1-c1ccc(Cl)cc1

melting point [°C]	Compound
144 to 147	COC(=O)c1ccc(N(N)C(=O)c2ccc(Cl)c(S(N)(=O)=O)c2)c([N+](=O)[O-])c1
140 to 141	COc1ccc(OCCOc2ccc(C(=O)C(=O)O)cc2)cc1OC
173 to 174	CCN(CC)CC1CCCCN1CC(=O)N1c2ccc(C)cc2C(=O)Nc2cccnc21 (configuration not stated)
114 to 115	CCCCOc1c(OC)cc(C(=O)O)cc1[N+](=O)[O-]
142 to 144	O=C(NO)c1ccc(OC(=O)C2(c3ccccc3)CCCCC2)cc1
207 to 208	Cc1cccc2sc(=O)[nH]c12
115 to 117	Cc1cccc(-c2[nH]c(C(C)C)nc2-c2cccc(-c3ccc4c(c3)CCCS4)c2)n1
57 to 59	CS(=O)(=O)Nc1ccc(C(O)CNC2CCN(c3ccc(CC4SC(=O)NC4=O)cc3)CC2)cn1 (configuration not stated)
> 260	COc1cccc(OC)c1-c1cc(C(=O)NC2(C(=O)O)C3CC4CC(C3)CC2C4)nn1-c1cccc2ncccc12 (configuration not stated)
60 to 62	COc1cc(OCC(=O)O)c(C)cc1SCc1ccc(-c2ccccc2)cc1
217 to 218	Cc1cccc(C(=O)Nc2c[nH]nc2C(=O)NCC(C)(C)CO)n1
127 to 129	CCC(C)(CC)NC(=O)C1(O)CC(C)(C)NC(C)(C)C1
114 to 115	C=CCn1nc(-c2ccc(O)cc2O)c2cccc(C(F)(F)F)c21
151 to 152	O=C(CC(=S)N1CCC[C@H]1C(=O)O)c1ccccc1
120 to 123	CC(C)c1cccc(C(C)C)c1NC(=O)Cc1ccccc1NCCc1ccccc1
85 to 89	CNCC1Cc2cc(C)cc(-c3cccc(OC)c3OC)c2O1 (configuration not stated)
151 to 152	CCOC(=O)c1csc(-c2ccc3c(=O)n(CC(C)C)c(CNC(=O)OCC4c5ccccc5-c5ccccc54)c(-c4ccccc4)c3c2)n1
86 to 88	COC(=O)CCc1c(Cc2ccccc2C(F)(F)F)sc2c1c(=O)n(C)c(=O)n2CC(C)C
190 to 196	Cc1cccc(C)c1N1C(=O)CS/C1=N\C(=O)Nc1ccc(-c2ncn(-c3ccc(OC(F)(F)F)cc3)n2)cc1
176 to 180	Nc1nonc1-c1nc2ccccc2n1CC(=O)C=Cc1ccccc1
128 to 130	COc1ccc([N+](=O)[O-])c(C#N)c1C
181 to 182	O=C(Cc1ccccc1)c1cc(O)c(O)c([N+](=O)[O-])c1
134 to 136	COc1ccc(-c2cc(-c3ccccc3)[nH]c2C(=O)NCc2ccc(C(=O)NO)cc2)cc1OC
158 to 160	Cc1ccc2c(c1)c1cc(C(=O)N3CCOCC3)sc1n2C

melting point [°C]	Compound
140 to 142	Cc1c(F)cccc1Cc1c(-c2ccccc2)c2cccnn2c1C(=O)N1CCNCC1
182	O=C1O[C@@H](Cn2ccnn2)CN1c1ccc(-c2ccc(C3=NOC(C(O)c4ccccc4)C3)nc2)c(F)c1 (some centres not stated)
163 to 165	COC(=O)C1(O)Cc2cc(Cl)ccc2C1=O (single isomer, unassigned; (+))
51 to 53	COc1ccc(COCC(O)CO)cc1 (configuration not stated)
235 to 239	Cc1nc(Nc2ccccc2)sc1C(=O)c1ccc(N)c([N+](=O)[O-])c1
84 to 86	CC(C)(C)OC(=O)N1CCN(c2ccc(O)c(C=O)c2)CC1
129 to 130	COC1=CC(=O)C(OC)=C(CCCOCCC2=C(OC)C(=O)C=C(OC)C2=O)C1=O
105 to 106	CCOC(=O)CCc1ccc(OCc2ccc(OCc3nc(-c4ccccc4)oc3C)cc2)cc1
174 to 176	CCCCn1cnc2c(OC)nc(Nc3ccc(OCC)nc3)nc21
149 to 150	C/C(=C(\C#N)C(N)=S)N1CCCCCCC1
264 to 266	Cc1ccc(-c2[nH]c3ccccc3c(=O)c2Cc2ccncc2)cc1
168	CN(C)CC#Cc1cnc2c(c1)N(Cc1cc(Cl)ccc1Cl)CCN2
281	N#CC=Cc1ccc(C(=O)O)cc1
320 to 323	O=C1CC(c2ccc(OCc3ccccc3)cc2)=Nc2ccc(N3CCOCC3)cc21
160 to 162	CC(C)OC(=O)N1c2cncnc2NC(=O)C1C (racemic)
163	O=C(Nc1ccn[nH]1)c1cccnc1Cl
97 to 100	CC(=O)NC(Cc1ccccc1)C(=O)OCc1cc(C)cc(C)c1 (configuration not stated)
151 to 153	O=C1N(Cc2csc(-c3ccc(C(F)(F)F)cc3)n2)c2ccccc2C12COc1cc3c(cc12)OCO3 (configuration not stated)
175 to 176	CC1(C)OC(c2ccc(S(C)(=O)=O)cc2F)=C(c2ccccc2)C1=O
116 to 118	CCOC(=O)n1c(=O)n(CCCl)c2cc(OC)ccc21
67 to 68	N#CCC(=N)c1cccc(F)c1
173 to 174	CNS(=O)(=O)c1cc(C(=O)NCC2CCCN2CC2CC2)c(OC)cc1N (configuration not stated)
252 to 253	CCC(=O)Nc1cc(-c2cccnc2)nc(-c2ccco2)n1
204 to 205	NC(=O)CNC(=O)c1cccc(-c2ccc(Cl)c3cc(Cc4cc(F)cc(Cl)c4)sc23)c1

melting point [°C]	Compound
115	O=C(O)c1ccc(CNC(=O)C2Cc3ccccc3N2S(=O)(=O)c2ccc(-c3ccc(F)cc3F)cc2)cc1 (configuration not stated)
139 to 141	CC(C)(C)OC(=O)CON=C(C(=O)OC(c1ccccc1)c1ccccc1)c1ncsn1
96 to 98	CC(C)(C)COC(=O)c1cc(Cl)c(F)c(Cl)c1
104 to 106	OC(CCl)COc1cccc2sncc12 (configuration not stated)
156 to 158	CN(c1cccc(C(F)(F)F)c1)c1nc2c(-c3cccc(C(=O)NCCO)c3)cccc2n1C
68	COc1nc(NCCCN2CCOCC2)nc(OC)c1NC(=O)c1csc(Oc2cccc(C(C)(C)C)c2)n1
107 to 109	C=CCN1Cc2cncn2C(c2ccc(C#N)cc2)C1=O (configuration not stated)
208 to 209	CNC(=O)n1ncc2ccc(NC(=O)/C=C/c3ccc(C(C)(C)C)cc3)cc21
165	CCc1cc2ccccn2c1C(=O)c1ccc(OS(=O)(=O)c2ccc(C)cc2)cc1
245 to 247	Cn1cc(C2=C(c3cn(CCCC#N)c4ccccc34)C(=O)NC2=O)c2ccccc21
187 to 188	COc1ccc(/C=C/c2nc3c(c(=O)n(C)c(=O)n3C)n2C)c(OC)c1OC
116 to 117	O=C(Nc1ccccc1O)c1ccc(OCCCCc2ccccc2)cc1
122 to 124	CCOC(=O)c1sc2nc(C)c(CC)c(=O)n2c1C
138 to 145	CP(=O)(O)C(CCc1ccccc1)NC(=O)C(F)(F)F (configuration not stated)
235 to 236	Cc1scc2c1C(=O)Nc1ccccc1N2C(=O)Cl
157 to 159	COC1=CC(=O)C(OC)=C(CCCC2=C(OC)C(=O)C=C(OC)C2=O)C1=O
92	CN(CC(F)(F)F)C(=O)COc1nc2ccccc2o1
222 to 224	CC(C)(CCCC(=O)O)c1ccc2c(c1)C(=O)c1ccc(C(C)(C)CCCC(=O)O)cc1C2=O
171 to 172	Cc1cc([N+](=O)[O-])c(NC(C)C(=O)N(C)O)c([N+](=O)[O-])c1 (configuration not stated)
100	Cc1cnn(CN(C(=O)CCl)c2c(C)cccc2C)c1
92 to 93	CCC(C)c1c(Cl)nc(NC=O)nc1Cl (configuration not stated)

Compound	melting point [°C]
N#Cc1nn(-c2c(Cl)cc(C(F)(F)F)cc2Cl)c(N)c1-c1cccc(F)c1	164
COc1cc2c(cc1C)CCC2c1cnc[nH]1 (configuration not stated)	68 to 70
NCCc1c[nH]c2ccc(Cc3ccccc3)cc12	150 to 153
CCCCCC(C)Oc1cc(O)c2c(c1)OC(C)(C)C1CCC(=O)C=C21 (configuration not stated)	185 to 189
